According to BigSolDB 2.1:

O=C1OC(=O)[C@H]2[C@@H]1[C@H]1C=C[C@@H]2C1
solubility (mole fraction)
Conditions	278.15 K	283.15 K	288.15 K	293.15 K	298.15 K	303.15 K	308.15 K	313.15 K	318.15 K	323.15 K
in 1,4-dioxane	–	–	0.177	0.199	0.221	0.249	0.273	0.304	0.334	0.37
in DMF	0.209	0.23	0.246	0.267	0.288	0.309	0.337	0.361	0.389	0.419
in NMP	0.257	0.271	0.289	0.305	0.325	0.345	0.371	0.392	0.421	0.448
in acetone	0.13	0.144	0.162	0.179	0.201	0.223	0.251	0.276	0.308	–
in ethanol	0.00405	0.00536	0.00707	0.00927	0.0117	0.0155	0.02	0.0255	0.0321	0.0404
in ethyl acetate	0.0719	0.0849	0.101	0.115	0.134	0.154	0.176	0.201	0.226	0.254
in isopentyl acetate	0.0426	0.0504	0.0608	0.07	0.0818	0.0952	0.107	0.125	0.145	0.165
in isopropyl acetate	0.0541	0.0637	0.0745	0.0862	0.102	0.117	0.133	0.152	0.172	0.196
in methyl acetate	0.0936	0.11	0.127	0.145	0.166	0.189	0.214	0.24	0.269	0.298
in n-butyl acetate	0.0526	0.0614	0.0725	0.0835	0.0969	0.111	0.128	0.145	0.165	0.189
in n-hexyl acetate	0.0377	0.0447	0.0525	0.0614	0.0717	0.0828	0.0955	0.11	0.125	0.144
in n-pentyl acetate	0.0448	0.0526	0.0615	0.0717	0.0833	0.0964	0.111	0.126	0.144	0.165
in n-propyl acetate	0.0616	0.0722	0.0852	0.0981	0.112	0.13	0.148	0.17	0.191	0.215
in octyl acetate	0.0303	0.036	0.0424	0.0496	0.0576	0.0666	0.0774	0.0875	0.1	0.115
